Experimental data from publication PMC9820763, “The Functional Characterization of Carboxylesterases Involved in the Degradation of Volatile Esters Produced in Strawberry Fruits” (International Journal of Molecular Sciences, 2022).

Legend:
rFaCXE2 (FaCXE2) = test system: T1, rFaCXE2 (FaCXE2); test: GC-MS of alcohol product, double-reciprocal plot; type: biochemical, Fragaria x ananassa; settings: Tris-HCl 100 mM, pH 7.5, 30 °C
T1 construct: fusion protein about 35-40 kDa; cloned from strawberry green fruit cDNA
Excerpt: GC-MS of alcohol product, double-reciprocal plot on rFaCXE2 (FaCXE2)

rFaCXE3 (FaCXE3) = test system: T2, rFaCXE3 (FaCXE3); test: GC-MS of alcohol product, double-reciprocal plot; type: biochemical, Fragaria x ananassa; settings: Tris-HCl 100 mM, pH 7.5, 30 °C
T2 construct: fusion protein about 35-40 kDa; cloned from strawberry green fruit cDNA
Excerpt: GC-MS of alcohol product, double-reciprocal plot on rFaCXE3 (FaCXE3)

Row | SMILES | Km (rFaCXE2 (FaCXE2)) | Km (rFaCXE3 (FaCXE3))
1 | CCCCCCOC(C)=O [Hexyl acetate] | 10900 ± 840 µM | 840 ± 70 µM
2 | CC/C=C\CCOC(C)=O [Z-3-Hexenyl acetate] | 2500 ± 130 µM | 950 ± 50 µM
3 | CCC/C=C/COC(C)=O [E-2-Hexenyl acetate] | 1040 ± 50 µM | 980 ± 110 µM
